Data from publication doi:10.1101/2025.08.22.671821v1, “Cross-regulation of (p)ppGpp and c-di-GMP pathways controls a cell-cycle transition” (biorxiv, 2025).

Legend:
PleDAT [1] = biological target: T1, PleDAT (Agrobacterium fabrum, UniProt A9CJ98); test: nanoDSF; type: binding; details: 100 µM protein, 1 mM ligand, pH 7.8, 5 mM MgCl2
T1 construct: gene pleD; His-tagged, pET28a-pleDAT, E. coli BL21(DE3), Ni-NTA and SEC

PleDAT [2] = biological target: T1, PleDAT; test: c-di-GMP synthesis, C18-HPLC; type: biochemical; details: 100 µM GTP, 40 µM protein, 10 mM MgCl2, pH 7.8, 25 °C, 2 h
PleDSM [3] = biological target: T2, PleDSM (Sinorhizobium meliloti, UniProt Q92QM5); test: c-di-GMP synthesis, C18-HPLC; type: biochemical; details: 100 µM GTP, 40 µM protein, 10 mM MgCl2, pH 7.8, 25 °C, 2 h
T2 construct: gene pleD; His-tagged, pET28a-pleDSM, E. coli BL21(DE3), Ni-NTA and SEC
T2 sequence (Q92QM5 1-455): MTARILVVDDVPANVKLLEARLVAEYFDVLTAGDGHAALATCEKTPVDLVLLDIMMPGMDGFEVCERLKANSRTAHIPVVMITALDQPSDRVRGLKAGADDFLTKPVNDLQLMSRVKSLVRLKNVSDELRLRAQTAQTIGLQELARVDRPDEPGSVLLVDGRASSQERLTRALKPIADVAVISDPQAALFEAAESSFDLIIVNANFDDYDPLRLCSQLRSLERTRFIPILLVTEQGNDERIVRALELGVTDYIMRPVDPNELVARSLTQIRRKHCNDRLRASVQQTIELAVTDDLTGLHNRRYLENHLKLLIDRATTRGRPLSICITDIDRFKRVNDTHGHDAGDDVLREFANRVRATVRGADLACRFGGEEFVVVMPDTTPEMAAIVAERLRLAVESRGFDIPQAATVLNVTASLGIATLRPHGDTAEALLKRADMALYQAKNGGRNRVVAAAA

PleD (PleDCC) [4] = biological target: T3, PleD (PleDCC) (Caulobacter vibrioides, UniProt B8GZM2); test: c-di-GMP synthesis, C18-HPLC; type: biochemical
T3 construct: full-length D1-D2-DGC, His-tagged, pET11b-pleD, E. coli BL21(DE3), Ni-NTA and SEC; unphosphorylated
T3 sequence (B8GZM2 1-454): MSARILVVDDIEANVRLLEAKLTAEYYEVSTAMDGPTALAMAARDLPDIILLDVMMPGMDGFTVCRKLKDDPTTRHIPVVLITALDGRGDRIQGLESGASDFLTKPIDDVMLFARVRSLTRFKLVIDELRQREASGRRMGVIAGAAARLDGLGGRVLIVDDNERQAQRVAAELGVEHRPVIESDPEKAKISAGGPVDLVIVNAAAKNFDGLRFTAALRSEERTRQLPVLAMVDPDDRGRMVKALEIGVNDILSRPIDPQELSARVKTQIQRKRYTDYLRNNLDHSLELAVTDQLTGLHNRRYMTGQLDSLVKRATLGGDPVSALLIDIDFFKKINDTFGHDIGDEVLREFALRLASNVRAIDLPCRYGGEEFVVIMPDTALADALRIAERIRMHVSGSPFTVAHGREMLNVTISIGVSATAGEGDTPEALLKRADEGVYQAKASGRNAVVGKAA

WspR [5] = biological target: T4, WspR (Pseudomonas aeruginosa, UniProt Q9HXT9); test: c-di-GMP synthesis, C18-HPLC; type: biochemical
T4 construct: His-tagged, pET28a-wspR, E. coli BL21(DE3), Ni-NTA and SEC

PleD (PleDCC) [6] = biological target: T3, PleD (PleDCC); test: ITC; type: binding
PleD (PleDCC) [7] = biological target: T3, PleD (PleDCC); test: crystal structure ([…] and […] Å); type: binding; details: I-site (inhibitory site), two molecules per monomer; with ppGpp (9G85) or pppGpp (9G86)
WspR [8] = biological target: T4, WspR; test: c-di-GMP synthesis, C18-HPLC; type: biochemical; details: 100 µM GTP, 40 µM protein, 10 mM MgCl2, pH 7.8, 25 °C
PleDSM [9] = biological target: T2, PleDSM; test: c-di-GMP synthesis, C18-HPLC; type: biochemical; details: 100 µM GTP, 40 µM protein, 10 mM MgCl2, pH 7.8, 25 °C

T1 sequence (A9CJ98 entry or part of it): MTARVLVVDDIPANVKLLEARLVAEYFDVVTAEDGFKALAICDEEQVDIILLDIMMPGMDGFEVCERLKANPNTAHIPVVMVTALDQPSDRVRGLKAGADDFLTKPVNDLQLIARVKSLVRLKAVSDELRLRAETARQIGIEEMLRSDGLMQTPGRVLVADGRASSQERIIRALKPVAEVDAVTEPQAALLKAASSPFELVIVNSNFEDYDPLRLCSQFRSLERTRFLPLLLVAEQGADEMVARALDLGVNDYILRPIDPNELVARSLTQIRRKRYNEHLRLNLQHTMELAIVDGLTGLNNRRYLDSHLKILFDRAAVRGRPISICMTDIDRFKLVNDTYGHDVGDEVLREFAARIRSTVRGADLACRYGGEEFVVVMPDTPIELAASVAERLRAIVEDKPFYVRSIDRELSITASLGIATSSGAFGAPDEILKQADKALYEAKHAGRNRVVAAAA
T4 sequence (Q9HXT9 entry or part of it): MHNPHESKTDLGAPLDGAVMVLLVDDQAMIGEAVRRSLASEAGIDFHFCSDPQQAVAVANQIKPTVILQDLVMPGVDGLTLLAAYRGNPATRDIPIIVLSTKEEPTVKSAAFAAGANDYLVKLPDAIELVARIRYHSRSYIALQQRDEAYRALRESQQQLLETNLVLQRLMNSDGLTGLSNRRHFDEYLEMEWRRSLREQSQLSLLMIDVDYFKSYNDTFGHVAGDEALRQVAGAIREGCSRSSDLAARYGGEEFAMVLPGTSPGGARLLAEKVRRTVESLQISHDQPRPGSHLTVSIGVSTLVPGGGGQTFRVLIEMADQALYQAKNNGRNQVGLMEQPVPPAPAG

Compound | ΔTm (PleDAT [1]) | % inhibition at 500 μM (PleDAT [2]) | % inhibition at 500 μM (PleDSM [3]) | inhibition at 500 µM (PleD (PleDCC) [4]) | Kd (PleD (PleDCC) [6]) | further results
Nc1nc2c(ncn2[C@@H]2O[C@H](COP(=O)(O)OP(=O)(O)OP(=O)(O)O)[C@@H](OP(=O)(O)OP(=O)(O)O)[C@H]2O)c(=O)[nH]1 [pppGpp] | NanoDSF assays further confirmed PleDAT binding to (p)ppGpp | ppGpp and pppGpp strongly inhibited c-di-GMP production, with pppGpp showing greater potency | ppGpp and pppGpp strongly inhibited c-di-GMP production, with pppGpp showing greater potency | > 90% | 9.31 ± 1.16 µM | inhibition at 500 µM (WspR [5]): > 50%
Nc1nc2c(ncn2[C@@H]2O[C@H](COP(=O)(O)OP(=O)(O)O)[C@@H](OP(=O)(O)OP(=O)(O)O)[C@H]2O)c(=O)[nH]1 [ppGpp] | NanoDSF assays further confirmed PleDAT binding to (p)ppGpp | ppGpp and pppGpp strongly inhibited c-di-GMP production | ppGpp and pppGpp strongly inhibited c-di-GMP production | > 50% | 45.4 ± 22.3 µM | 
Nc1nc2c(ncn2[C@@H]2O[C@@H]3COP(=O)(O)O[C@H]4[C@@H](O)[C@H](n5cnc6c(=O)[nH]c(N)nc65)O[C@@H]4COP(=O)(O)O[C@H]3[C@H]2O)c(=O)[nH]1 [c-di-GMP] |  |  |  |  |  | crystal structure (2.9 and 3 Å) (PleD (PleDCC) [7]): each monomer of the (p)ppGpp-PleD structures is bound by two cyclic di-GMP molecules
Nc1nc2c(ncn2[C@@H]2O[C@H](COP(=O)(O)OP(=O)(O)OP(=O)(O)O)[C@@H](O)[C@H]2O)c(=O)[nH]1 [GTP] |  |  |  |  |  | c-di-GMP synthesis, C18-HPLC (WspR [8]): c-di-GMP production by different diguanylate cyclases (DGCs); c-di-GMP synthesis, C18-HPLC (PleDSM [9]): c-di-GMP production by different diguanylate cyclases (DGCs)
Nc1nc2c(ncn2[C@@H]2O[C@H](COP(=O)(O)CP(=O)(O)OP(=O)(O)O)[C@@H](O)[C@H]2O)c(=O)[nH]1 [GpCpp] |  |  |  |  | 6.01 ± 1.52 µM | 
